# Data taken from PMC8364251 (Pharmacological Research, 2021).
# “Also recorded” adds a separate entry of the source.
# Tests used:
# [1] = target: RBD-ACE2 binding (Severe acute respiratory syndrome coronavirus 2, UniProt P0DTC2); test: ELISA ACE2:SARS-CoV-2 Spike inhibitor screening assay; conditions: 25–200 μM compounds
# [2] = test system: SARS-CoV-2; test: Plaque formation assay; conditions: Vero E6
# [3] = test system: HEK293; format: cell-based, human; conditions: HEK293 cells
# [4] = test system: authentic SARS-CoV-2; conditions: cited from earlier work
# [5] = test system: SARS-CoV-2-pseudotyped lentivirus; format: cell-based; conditions: concentrations up to 100 μM
# [6] = target: human ACE2 (Homo sapiens, UniProt Q9BYF1); format: binding
# Chain of human ACE2 (Q9BYF1 18-805): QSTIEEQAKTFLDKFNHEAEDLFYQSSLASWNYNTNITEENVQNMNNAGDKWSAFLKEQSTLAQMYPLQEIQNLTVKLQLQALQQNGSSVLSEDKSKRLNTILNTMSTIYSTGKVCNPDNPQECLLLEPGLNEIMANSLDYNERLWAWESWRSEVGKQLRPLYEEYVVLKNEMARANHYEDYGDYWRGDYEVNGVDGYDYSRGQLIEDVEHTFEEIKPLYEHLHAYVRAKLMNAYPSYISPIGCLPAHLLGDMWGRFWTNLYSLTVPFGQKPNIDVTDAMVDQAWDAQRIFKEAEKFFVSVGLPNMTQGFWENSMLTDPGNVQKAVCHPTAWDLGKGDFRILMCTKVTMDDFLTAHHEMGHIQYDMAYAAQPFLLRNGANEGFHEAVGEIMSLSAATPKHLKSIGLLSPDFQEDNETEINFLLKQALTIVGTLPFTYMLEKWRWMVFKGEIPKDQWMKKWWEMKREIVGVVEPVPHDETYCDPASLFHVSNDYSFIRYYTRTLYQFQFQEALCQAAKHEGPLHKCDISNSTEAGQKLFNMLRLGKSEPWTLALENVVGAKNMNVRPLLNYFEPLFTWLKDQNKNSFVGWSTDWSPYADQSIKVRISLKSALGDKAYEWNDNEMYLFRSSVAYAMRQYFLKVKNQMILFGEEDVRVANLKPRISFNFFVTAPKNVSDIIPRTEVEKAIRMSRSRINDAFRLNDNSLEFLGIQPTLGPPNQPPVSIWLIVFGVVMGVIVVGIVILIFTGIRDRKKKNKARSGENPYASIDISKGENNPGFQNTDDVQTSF
# [7] = test system: SARS-CoV-2; test: Authentic SARS-CoV-2 CPE reduction assay in Vero E6 cells; format: cell-based
# [8] = target: Spike-RBD protein (Severe acute respiratory syndrome coronavirus 2, UniProt P0DTC2); format: binding, SARS-CoV-2; conditions: BLI screening
# [9] = target: RBD (Severe acute respiratory syndrome coronavirus 2, UniProt P0DTC2); conditions: streptavidin probes; cited from earlier work
# [10] = test system: HIV-1 protease; conditions: cited from earlier work
# [11] = test system: Ebola virus; conditions: cited from earlier work
# [12] = test system: H1N1 influenza virus; conditions: cited from earlier work
# [13] = 200 and 300 mg/kg/day oral, 7 days
# [14] = test system: zika virus; conditions: cited from earlier work
molecule,measurement,setting,value
"O=C(/C=C/c1ccc(O)c(O)c1)OC[C@H]1O[C@@H](OCCc2ccc(O)c(O)c2)[C@H](O)[C@@H](O)[C@@H]1O [CalB, calceolarioside B]",activity in ELISA (inhibition of RBD-ACE2 binding),[1],weakly active
"C[C@H]1CC[C@@]2(OC1)O[C@H]1C[C@H]3[C@@H]4CC[C@@H]5C[C@@H](O[C@@H]6O[C@H](CO)[C@H](O)[C@H](O)[C@H]6O[C@@H]6O[C@H](CO)[C@@H](O)[C@H](O)[C@H]6O)CC[C@]5(C)[C@H]4CC[C@]3(C)[C@H]1[C@@H]2C [TimA, timosaponin A III]",activity in ELISA (inhibition of RBD-ACE2 binding),[1],almost inactive
"COc1ccc(C[C@@H]2c3cc(Oc4cc(C[C@@H]5c6cc(O)c(OC)cc6CCN5C)ccc4O)c(OC)cc3CCN2C)cc1 [Isl, isoliensinine]",activity in ELISA (inhibition of RBD-ACE2 binding),[1],high activities
same,inhibition of plaque formation,[2],inhibited plaque formation
same,cytotoxicity,[3],toxicity
same,effect against authentic SARS-CoV-2,[4],effective against authentic SARS-CoV-2
"CC(C)=CCc1c(O)ccc(C(=O)/C=C/c2ccc(O)cc2)c1O [Ibvc, isobavachalcone]",activity in ELISA (inhibition of RBD-ACE2 binding),[1],weakly active; also recorded: lacked activity
same,inhibition of plaque formation,[2],effective
same,inhibition of pseudovirus entry,[5],effectively inhibited pseudovirus entry
same,binding to ACE2 in BLI,[6],bound to ACE2 receptor
same,inhibition of SARS-CoV-2-induced cytopathic effect,[7],effective
"C=C[C@@](C)(/C=C/c1ccc(O)cc1)CCC=C(C)C [Bkc, bakuchiol]",activity in ELISA (inhibition of RBD-ACE2 binding),[1],weakly active; also recorded: lacked activity
same,inhibition of pseudovirus entry,[5],effectively inhibited pseudovirus entry
same,binding to ACE2 in BLI,[6],bound to ACE2 receptor
"O=C(/C=C/c1ccc(O)c2oc(-c3ccc(O)c(O)c3)cc12)O[C@H](Cc1ccc(O)c(O)c1)C(=O)O [SalC, Salvianolic acid C]",Kd,[8],6.2 µM
same,binding activity to RBD measured by BLI,[9],weak binding activity to RBD
"CC(C)=CCc1cc2c(cc1O)O[C@H](c1ccc(O)cc1)CC2=O [Bvc, bavachin]",activity in ELISA (inhibition of RBD-ACE2 binding),[1],high activities
same,effect against authentic SARS-CoV-2,[4],effective against authentic SARS-CoV-2
"O=C(/C=C/c1ccc(O)c(O)c1/C=C/c1ccc(O)c(O)c1)O[C@H](Cc1ccc(O)c(O)c1)C(=O)O [SalA, salvianolic acid A]",activity in ELISA (inhibition of RBD-ACE2 binding),[1],high activities
same,inhibition of plaque formation,[2],effective
same,inhibition of pseudovirus entry,[5],weakly inhibited pseudovirus entry
same,inhibition of SARS-CoV-2-induced cytopathic effect,[7],effective
bavachinin [Bvcn],activity in ELISA (inhibition of RBD-ACE2 binding),[1],high activities
"O=C(O[C@@H]1Cc2c(O)cc(O)cc2O[C@@H]1c1cc(O)c(O)c(O)c1)c1cc(O)c(O)c(O)c1 [EGCG, epigallocatechin gallate]",activity in ELISA (inhibition of RBD-ACE2 binding),[1],high activities
same,IC50,[10],50 to 100 µM
same,inhibition of plaque formation,[2],effective
same,EC50,[11],50 µM
same,EC50,[12],22 to 28 µM
same,body weights,[13],no adverse effect
same,survival,[13],no adverse effect
same,organ weights,"[13]; liver, kidney, lung, spleen, thymus",no adverse effect
same,inhibition of pseudovirus entry,[5],effectively inhibited pseudovirus entry
same,binding to ACE2 in BLI,[6],bound to ACE2 receptor
same,inhibition of SARS-CoV-2-induced cytopathic effect,[7],effective
same,EC50,[14],21.4 µM
"COc1ccc2cc1Oc1ccc(cc1)C[C@H]1c3c(cc4c(c3Oc3cc5c(cc3OC)CCN(C)[C@@H]5C2)OCO4)CCN1C [Ceph, cepharanthine]",activity in ELISA (inhibition of RBD-ACE2 binding),[1],almost inactive
same,effect against authentic SARS-CoV-2,[4],effective against authentic SARS-CoV-2
